Reference: patent US10022317B2, “Composition comprising an extract of herbal medicine processed by an oriental herbal medicine processing” (AMOREPACIFIC CORPORATION, priority 2013, dated 2018)

Legend:
collagenase = experiment: Collagenase expression inhibiting effect in human fibroblasts (collagenase kit, absorbance 405 nm); type: cell-based; settings: 10^-4 M in serum-free DMEM, 24 hours, relative to non-treated group as 100
Procedure: The collagenase production inhibiting activity of the substances of Comparative Examples and Examples was compared with tocopherol and EGCG as control substances.
Human fibroblasts were seeded onto a 96-well plate holding Dulbecco's modified Eagle's medium (DMEM) comprising 2.5% fetal bovine serum, with 5,000 cells/well, and cultured until ˜90% confluency. The cells were further cultured in serum-free DMEM for 24 hours and treated with the mixture of oriental herbal medicine processed ginseng polysaccharide and green tea polysaccharide prepared in Comparative Examples 1-5 and Examples 1-6 at 10^−4 M in serum-free DMEM for 24 hours. Then the cell culture was collected.
The degree of collagenase production from the collected cell culture was measured using a commercially available collagenase kit (Amersham Pharmacia, USA). […]
Absorbance was measured at 405 nm using a spectrophotometer and the expression level of collagenase was calculated according to Equation 1. The expression level was calculated with respect to the non-treated control group. Expression level of collagenase (%)=[…]{(Absorbance of cells treated with substances of Comparative Example or Example÷Absorbance of control)×100} [Equation 1] […]

procollagen = experiment: Procollagen production promoting effect in human fibroblasts (procollagen type-1 C-peptide EIA kit); type: cell-based; settings: 10^-4 M in serum-free DMEM, 24 hours, relative to non-treated group as 100
Procedure: The procollagen production promoting activity of the substances of Comparative Examples and Examples was compared with that of vitamin C. Human fibroblasts were seeded onto a 96-well plate holding Dulbecco's modified Eagle's medium (DMEM) comprising 2.5% fetal bovine serum, with 5,000 cells/well, and cultured until ˜90% confluency. The cells were further cultured in serum-free DMEM for 24 hours and treated with the mixture of oriental herbal medicine processed ginseng polysaccharide and green tea polysaccharide prepared in Comparative Examples 1-5 and Examples 1-6 and vitamin C dissolved to 10^−4 M in serum-free DMEM for 24 hours. 24 hours later, the amount of free procollagen was measured using the procollagen type-1 C-peptide EIA kit (MK101, Takara, Japan). The level of procollagen production is given in Table 2 relative to the non-treated group as 100.

Row | Compound | Expression level of collagenase (%) (collagenase) | Level of procollagen production (%) (procollagen)
1 | O=C(O[C@@H]1Cc2c(O)cc(O)cc2O[C@@H]1c1cc(O)c(O)c(O)c1)c1cc(O)c(O)c(O)c1 [EGCG] | 63% | –
2 | O=C1O[C@H]([C@@H](O)CO)C(O)=C1O [Vitamin C] | – | 121%
3 | Tocopherol | 76% | –
